What was measured:
full length human TREX1 = molecular target: T1, full length human TREX1 (Homo sapiens, UniProt Q9NSU2); assay: hTREX1 Biochemical Assay (fluorescence, dsDNA substrate degradation); details: biochemical, read-out: hTREX1 IC50
T1 construct: N-terminally His-Tev tagged full length human TREX1; made in house; host or cells: E. coli
T1 sequence (Q9NSU2 1-314): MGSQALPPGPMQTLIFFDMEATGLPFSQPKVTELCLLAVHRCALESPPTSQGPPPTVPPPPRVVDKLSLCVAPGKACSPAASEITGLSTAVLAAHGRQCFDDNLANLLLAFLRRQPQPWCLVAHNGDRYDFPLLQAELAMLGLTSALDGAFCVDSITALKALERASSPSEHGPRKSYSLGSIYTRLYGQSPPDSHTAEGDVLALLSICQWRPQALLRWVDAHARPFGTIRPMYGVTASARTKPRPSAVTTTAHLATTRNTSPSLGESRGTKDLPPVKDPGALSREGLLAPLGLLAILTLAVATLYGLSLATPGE
Method in brief: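 Cleavage of 60 nM TEX615/quencher-labelled dsDNA in pH 7.4 Tris buffer with 5 mM MgCl2, 1.0% DMSO, run 18 hours at 25° C, EDTA-quenched; fluorescence read-out.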

[1] = molecular target: T2, human TREX2 (residues M44-A279) (Homo sapiens, UniProt Q9BQ50); assay: hTREX2 Biochemical Assay (fluorescence, dsDNA substrate degradation); details: biochemical selectivity for hTREX1 vs hTREX2
T2 construct: human TREX2 (residues M44-A279, expressed in E. coli); made in house; host or cells: E. coli
T2 sequence (Q9BQ50 44-279 isoform Q9BQ50-1): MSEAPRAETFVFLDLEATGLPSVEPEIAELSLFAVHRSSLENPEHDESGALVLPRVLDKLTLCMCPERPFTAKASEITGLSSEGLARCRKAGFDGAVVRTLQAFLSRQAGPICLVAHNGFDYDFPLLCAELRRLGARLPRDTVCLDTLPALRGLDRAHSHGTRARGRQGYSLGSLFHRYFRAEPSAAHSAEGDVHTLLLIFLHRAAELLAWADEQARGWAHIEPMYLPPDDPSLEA
Method in brief: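 N-His-Tev E. coli enzyme (50 pM) pre-incubated with compound 4 h at 25 °C, then 60 nM TEX615/quencher dsDNA added; 18 h at 25 °C, pH 7.4 Tris buffer with 5 mM MgCl2, 1.0% DMSO. EDTA-quenched; fluorescence 570 ex/615 em from liberated fluorophore, 10-point dose-response.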

hTREX1 = molecular target: T3, hTREX1 (Homo sapiens, UniProt Q9NSU2); assay: hTREX1 HCT116 Cell Assay (HCT116 dual cells, Lucia luciferase reporter of Type I interferon induction); type: cell-based; details: TREX1i 4 h before pBR322/BstNI transfection, read after 48 h
T3 construct: host or cells: HCT116 dual cells
T3 sequence (Q9NSU2 1-314): T1 sequence (Q9NSU2 1-314)
Method in brief: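 HCT116 dual cells carrying an ISRE-type STAT1/STAT2-driven secreted Lucia luciferase reporter were pretreated with TREX1 inhibitor for 4 h (≤0.1% DMSO), then transfected with pBR322/BstNI DNA (100 ng/well, Lipofectamine LTX). Luciferase in medium read after 48 h at 37 °C.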

Row | IC50 (full length human TREX1) [nM] | hTREX1 vs hTREX2 selectivity [1] | IC50 (hTREX1) [nM] | Structure (SMILES)
1 | < 1 | C (C = >50 fold selective for hTREX1) | < 10 | CC(c1nc(C(=O)Nc2cnoc2)c(O)c(=O)n1C)C(c1cnn(C)c1)c1ccccc1C#N (single isomer, unassigned) [Example 2 D1E1]
2 | < 1 | C (C = >50 fold selective for hTREX1) | < 10 | CCn1cc(C(c2ccccc2C#N)C(C)c2nc(C(=O)Nc3cnoc3)c(O)c(=O)n2C)cn1 (single isomer, unassigned) [Example 13 D1E1]
3 | < 1 | C (C = >50 fold selective for hTREX1) | < 10 | Cc1nn(C)cc1C(c1cc(F)ccc1C#N)C(C)c1nc(C(=O)Nc2cnoc2)c(O)c(=O)n1C (single isomer, unassigned) [Example 57 D1E2]
4 | < 1 | – | < 10 | CC(c1nc(C(=O)Nc2cnoc2)c(O)c(=O)n1C)C(c1cnn(CC(F)(F)F)c1)c1ccccc1C#N (single isomer, unassigned) [Example 22 D1E1]
5 | < 1 | – | < 10 | CC(c1nc(C(=O)Nc2cnoc2)c(O)c(=O)n1C)C(c1cnn(C(F)F)c1)c1ccccc1C#N (single isomer, unassigned) [Example 38 D1E1]
6 | < 1 | C (C = >50 fold selective for hTREX1) | < 10 | CC(c1nc(C(=O)Nc2cnoc2)c(O)c(=O)n1C)C(c1ccccc1C#N)c1cn(C)nc1C#N (single isomer, unassigned) [Example 10 D1E1]
7 | < 1 | C (C = >50 fold selective for hTREX1) | < 10 | Cc1cncc(C(c2ccccc2C#N)C(C)c2nc(C(=O)Nc3cnoc3)c(O)c(=O)n2C)n1 (single isomer, unassigned) [Example 53 D1E2]
8 | < 1 | C (C = >50 fold selective for hTREX1) | < 10 | Cc1nc(C)c(C(c2ccccc2C#N)C(C)c2nc(C(=O)Nc3cnoc3)c(O)c(=O)n2C)nc1C (single isomer, unassigned) [Example 122 D1E1]
9 | < 1 | – | < 10 | CCn1cc(C(c2cc(F)ccc2C#N)C(C)c2nc(C(=O)Nc3cnoc3)c(O)c(=O)n2C)cn1 (single isomer, unassigned) [Example 17 D1E2]
10 | < 1 | C (C = >50 fold selective for hTREX1) | < 10 | Cc1ncc(C(c2ccccc2C#N)C(C)c2nc(C(=O)Nc3cnoc3)c(O)c(=O)n2C)nc1C (single isomer, unassigned) [Example 81 D1E2]
11 | < 1 | – | 10 to 100 | CC(c1nc(C(=O)Nc2cnoc2)c(O)c(=O)n1C)C(c1cnn(C)c1)c1cc(Cl)ccc1C#N (single isomer, unassigned) [Example 26 D1E2]
12 | < 1 | C (C = >50 fold selective for hTREX1) | < 10 | CC(c1nc(C(=O)Nc2cnoc2)c(O)c(=O)n1C)C(c1cnn(C)c1)c1cc(F)ccc1C#N (single isomer, unassigned) [Example 14 D1E2]
13 | < 1 | C (C = >50 fold selective for hTREX1) | < 10 | CCn1cc(C(c2ccc(F)cc2C#N)C(C)c2nc(C(=O)Nc3cnoc3)c(O)c(=O)n2C)cn1 (single isomer, unassigned) [Example 16 D1E1]
14 | < 1 | – | < 10 | Cc1nn(C)c(C)c1C(c1ccccc1C#N)C(C)c1nc(C(=O)Nc2cnoc2)c(O)c(=O)n1C (single isomer, unassigned) [Example 78 D1E1]
15 | < 1 | C (C = >50 fold selective for hTREX1) | 10 to 100 | CCn1c(C(C)C(c2cnn(C)c2)c2ccccc2C#N)nc(C(=O)Nc2cnoc2)c(O)c1=O (single isomer, unassigned) [Example 149 D1E2]
16 | < 1 | C (C = >50 fold selective for hTREX1) | 10 to 100 | CC(c1nc(C(=O)Nc2cnoc2)c(O)c(=O)n1C)C(c1cnn(C)c1)c1ccccc1Cl (single isomer, unassigned) [Example 77 D1E1]
17 | < 1 | C (C = >50 fold selective for hTREX1) | < 10 | C[C@H](c1nc(C(=O)Nc2cnoc2)c(O)c(=O)n1C)[C@@H](c1cc(F)ccc1C#N)c1cn(C)nc1C#N [Example 59 D1E2]
18 | < 1 | C (C = >50 fold selective for hTREX1) | 10 to 100 | CC(c1nc(C(=O)Nc2cnoc2)c(O)c(=O)n1C)C(c1cnn(CC2CC2)c1)c1ccccc1C#N (single isomer, unassigned) [Example 23 D1E2]

Row | Structure (SMILES) | IC50 (full length human TREX1) [nM] | hTREX1 vs hTREX2 selectivity [1] | IC50 (hTREX1) [nM]
19 | Cc1cc(C(c2cc(F)ccc2C#N)C(C)c2nc(C(=O)Nc3cnoc3)c(O)c(=O)n2C)n(C)n1 (single isomer, unassigned) [Example 111 D1E2] | < 1 | B (B = 25 to 50-fold selective for hTREX1) | 10 to 100
20 | Cc1ncc(C(c2cc(F)ccc2C#N)C(C)c2nc(C(=O)Nc3cnoc3)c(O)c(=O)n2C)nc1C (single isomer, unassigned) [Example 124 D1E2] | < 1 | B (B = 25 to 50-fold selective for hTREX1) | 10 to 100
21 | CC(c1nc(C(=O)Nc2cnoc2)c(O)c(=O)n1C)C(c1cnn(C(C)C)c1)c1ccccc1C#N (single isomer, unassigned) [Example 105 D1E2] | < 1 | B (B = 25 to 50-fold selective for hTREX1) | < 10
22 | Cc1ncc(C(c2ccccc2Cl)C(C)c2nc(C(=O)Nc3cnoc3)c(O)c(=O)n2C)nc1C (single isomer, unassigned) [Example 125 D1E2] | < 1 | B (B = 25 to 50-fold selective for hTREX1) | < 10
23 | Cc1cnc(C(c2cc(F)ccc2C#N)C(C)c2nc(C(=O)Nc3cnoc3)c(O)c(=O)n2C)cn1 (single isomer, unassigned) [Example 115 D1E2] | < 1 | B (B = 25 to 50-fold selective for hTREX1) | < 10
24 | CC(c1nc(C(=O)Nc2cnoc2)c(O)c(=O)n1C)C(c1ccccc1C#N)c1cn(C)nc1F (single isomer, unassigned) [Example 91 D1E1] | < 1 | B (B = 25 to 50-fold selective for hTREX1) | < 10

From patent US20240246946A1, “MODULATORS OF TREX1” (Constellation Pharmaceuticals, Inc., priority 2021, published 2024)
